Source: patent US5484803A, “Transcutaneous in vivo activation of photosensitive agents in blood” (priority 1995, dated 1996)

Tests used:
[1] = system: mouse blood; test: Blood cell morphology 2 weeks post-treatment; type: in vivo, Balb/c mice
Method: (§1) Blood Tests: Blood was drawn into syringes containing 50 μl of heparin (1000 units/ml saline). Blood samples (0.45 ml) from at least 1 mouse per time point were sent to the Diagnostic Laboratory at the University Hospital, University of British Columbia site, for analysis by a Coulter Counter. Blood morphology was determined on blood films prepared from selected samples by a laboratory technologist.
Six Balb/c mice (22±1 g weight) were prepared as described above. Five mice were injected twice (24 hour interval) with BPD from DMSO stock (not liposomal BPD) and exposed to light 1 hour after the injection. One mouse was not injected but was exposed to light (light-only control). During the first treatment the mice were injected with 15 μg BPD/mouse in 200 μl of PBS. During the second treatment the mice were injected with 20 μg BPD/mouse (0.9 mg/kg). A single mouse was used as a control for both treatments.
Immediately post-injection (on both occasions) the animals were kept for 1 hour in the dark and then were placed in individual plastic containers (9×4×5 cm), which were placed in the light box and exposed to light. The individual mice were removed from the light box at different intervals: 15, 30, 45, 60 and 75 min, respectively. The light doses delivered at the surface of the skin were 27, 54, 81, 108 and 135 J/cm^2, respectively. On the second occasion the same light doses were used; however, mice receiving higher light doses on day 1 received lower doses on day 2. The control mouse was exposed to light for 60 min on both occasions. During light exposure, the mice were constantly observed for signs of discomfort or itching. After the second light exposure, the mice were observed daily for a period of 2 weeks for appearance of the skin and general pattern of behavior.
Two weeks post-treatment blood samples were obtained from each mouse by a heart puncture, under halothane anesthesia. Then the mice were sacrificed and autopsied. Their spleen, liver and kidneys were weighed.

[2] = system: mouse blood; test: Blood parameters immediately after light exposure (acute effect); type: in vivo, mice
Method: as §1
Fourteen mice (weight 22±1 g) were used in this study. Twelve mice were injected with 20 μg (0.9 mg/kg) of liposomal BPD (in 200 μl) and kept in the dark for 1 hour before exposure to light. The mice each were exposed to light for 30 min, 1 hour or 1.5 hours, which delivered light doses to the skin surface of 54, 108 and 162 J/cm^2, respectively. Immediately after light exposure, blood samples were obtained. At the corresponding times, blood samples were obtained from two mice injected with BPD, but not exposed to light. Two additional mice were tested one hour after injection.

[3] = system: free viruses and virally infected cells; details: with red light (400-900 nm); spiked blood products and whole blood from viremic cats; cited from earlier work
[4] = BPD 0.87 mg/kg, light 0, 1 1/2 h post inj.
[5] = BPD 0.87 mg/kg, light 0, 2 1/2 h post inj.
[6] = BPD 0.87 mg/kg, light 0, 1 h post inj.
[7] = BPD 0.93 mg/kg, light 0, 2 h post inj.
[8] = BPD 0.93 mg/kg, light 162 J/cm^2, 2 1/2 h post inj.
[9] = BPD 0.95 mg/kg, light 54 J/cm^2, 1 1/2 h post inj.
[10] = BPD 0.95 mg/kg, light 108 J/cm^2, 2 h post inj.

## benzoprophyrin derivative monoacid ring A [BPD]
[1]; mouse 1, light 27 then 135 J/cm^2
  Monocytes: 1 % WBC
[1]; mouse 1, light 27 then 135 J/cm^2, normal 12-15
  Granulocytes: 9 % WBC
[1]; mouse 1, light 27 then 135 J/cm^2, normal 65-85
  Lymphocytes: 90 % WBC
[1]; mouse 2, light 54 then 108 J/cm^2
  Monocytes: 1 % WBC
[1]; mouse 2, light 54 then 108 J/cm^2, normal 12-15
  Granulocytes: 11 % WBC
[1]; mouse 2, light 54 then 108 J/cm^2, normal 65-85
  Lymphocytes: 88 % WBC
[1]; mouse 3, light 81 then 81 J/cm^2
  Monocytes: 3 % WBC
[1]; mouse 3, light 81 then 81 J/cm^2, normal 12-15
  Granulocytes: 19 % WBC
[1]; mouse 3, light 81 then 81 J/cm^2, normal 65-85
  Lymphocytes: 78 % WBC
[1]; mouse 4, light 108 then 54 J/cm^2
  Monocytes: 2 % WBC
[1]; mouse 4, light 108 then 54 J/cm^2, normal 12-15
  Granulocytes: 36 % WBC
[1]; mouse 4, light 108 then 54 J/cm^2, normal 65-85
  Lymphocytes: 62 % WBC
[1]; mouse 5, light 135 then 27 J/cm^2
  Monocytes: 1 % WBC
[1]; mouse 5, light 135 then 27 J/cm^2, normal 12-15
  Granulocytes: 7 % WBC
[1]; mouse 5, light 135 then 27 J/cm^2, normal 65-85
  Lymphocytes: 92 % WBC
[2]; 0.9 mg/kg liposomal BPD, 54-162 J/cm^2
  acute effect on blood parameters: no acute effect on blood parameters was observed
[2]; [4]
  HB: 117 g/L
  Hct: 0.329
  MCV: 48.7 fL
  PLT: 428 10^6 /ml
  RBC: 6.77 10^9 /ml
  WBC: 4.4 10^6 /ml
[2]; [5]
  HB: 129 g/L
  Hct: 0.372
  MCV: 48.5 fL
  PLT: 447 10^6 /ml
  RBC: 7.68 10^9 /ml
  WBC: 3.9 10^6 /ml
[2]; [6]
  HB: 124 g/L
  Hct: 0.368
  MCV: 48.4 fL
  PLT: 608 10^6 /ml
  RBC: 7.61 10^9 /ml
  WBC: 5.5 10^6 /ml
[2]; [7]
  HB: 129 g/L
  Hct: 0.382
  MCV: 49.1 fL
  PLT: 475 10^6 /ml
  RBC: 7.79 10^9 /ml
  WBC: 11.4 10^6 /ml
[2]; [8]
  HB: 116 g/L
  Hct: 0.353
  MCV: 49.2 fL
  PLT: 506 10^6 /ml
  RBC: 7.17 10^9 /ml
  WBC: 4.9 10^6 /ml
[2]; [9]
  HB: 127 g/L
  Hct: 0.363
  MCV: 49.9 fL
  PLT: 613 10^6 /ml
  RBC: 7.28 10^9 /ml
  WBC: 7.0 10^6 /ml
[2]; [10]
  HB: 131 g/L
  Hct: 0.378
  MCV: 50.1 fL
  PLT: 440 10^6 /ml
  RBC: 7.53 10^9 /ml
  WBC: 8.5 10^6 /ml
[3]
  elimination of free viruses and virally infected cells: effective in eliminating both free viruses and virally infected cells
